This is an account of results in ChEMBL document CHEMBL1128153, “Acetylcholinesterase inhibition by alkaloids of the ant's venom Monomorium minutum” (Bioorg Med Chem Lett, 1995).

Data set [1] concerns the target Acetylcholinesterase (Electrophorus electricus, UniProt O42275).
Description: Tested for in vitro inhibition of acetylcholinesterase
In data set [2] the test system is ant. The data set can be described thus: Evaluated for the amount of compound present in ant's venom Monomorium minutum. The format is functional.
A short description of data set [3]: Partition coefficient (logP). Type of data set: physicochemical. As to conditions: octanol/water.

Molecules are shown by their SMILES.

Acetylcholinesterase, sequence (O42275 whole entry): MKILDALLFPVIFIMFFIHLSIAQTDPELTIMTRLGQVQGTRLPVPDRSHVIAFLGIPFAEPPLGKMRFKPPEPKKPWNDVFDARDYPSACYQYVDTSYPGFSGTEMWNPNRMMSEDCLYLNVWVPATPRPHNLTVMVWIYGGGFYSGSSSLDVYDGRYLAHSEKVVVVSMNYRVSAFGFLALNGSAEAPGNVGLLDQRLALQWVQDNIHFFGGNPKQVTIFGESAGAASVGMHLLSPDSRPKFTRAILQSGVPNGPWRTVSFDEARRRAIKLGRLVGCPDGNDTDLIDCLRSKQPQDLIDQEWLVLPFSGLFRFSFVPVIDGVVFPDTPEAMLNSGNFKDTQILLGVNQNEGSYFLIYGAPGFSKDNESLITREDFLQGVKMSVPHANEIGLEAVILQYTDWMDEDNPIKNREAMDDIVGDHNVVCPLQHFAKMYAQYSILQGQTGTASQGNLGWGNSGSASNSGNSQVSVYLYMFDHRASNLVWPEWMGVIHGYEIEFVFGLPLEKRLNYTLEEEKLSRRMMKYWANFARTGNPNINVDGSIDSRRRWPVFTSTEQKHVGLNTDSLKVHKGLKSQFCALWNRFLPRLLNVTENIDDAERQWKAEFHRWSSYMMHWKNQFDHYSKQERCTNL

For the molecule `C=CCCCCCCCC1=NC(CCCCC=C)CC1` (stereo not drawn), the Ki in data set [1] is 13000 nM. Besides, the Venom in data set [2] is 0.2%. In data set [3], this molecule had a logP of 8.02.
`CN(C)C(=O)Oc1cccc([N+](C)(C)C)c1` [NEOSTIGMINE BROMIDE]: the Ki in data set [1] came to 1000 nM.
With `C=CCCCCC1CCC(CCCCCCCCC)N1` (stereo not drawn), in data set [1], the inhibitory constant (Ki) was 1500 nM. This molecule also yielded a Venom in data set [2] of 58.7%. In data set [3], this molecule registered a logP of 7.68.
`C=CCCCCC1=NC(CCCCCCCCC)CC1` (stereo not drawn) yielded an inhibition constant Ki in data set [1] of 5000 nM. The molecule further showed a Venom in data set [2] of 4.4%. This molecule gave a logP in data set [3] of 8.39.
The corresponding values for `C=CCCCCCCCC1CCC(CCCCC=C)N1` (stereo not drawn) are 2500 nM, 29.8% and 7.32.
